In brackets after ≈: the same amount, converted by molar mass.
What was measured:
S. aureus 209P NIHJ-JC1 = assay: agar plate dilution method, MIC against S. aureus 209P NIHJ-JC1; type: cell-based; details: Staphylococcus aureus; S. aureus 209P NIHJ-JC1; 10^6 CFU/ml, Mueller Hinton agar, 37° C., 16 hours; read-out: Minimum Inhibitory Concentration (MIC)
Description: (§1) The in vitro antibacterial activities of the compounds of the present invention against various microorganisms, were measured by the following agar plate dilution method. One platinum loopfull of each test microorganism incubated overnight in Mueller Hinton broth, was inoculated to Mueller Hinton agar (inoculum size: 10^6 CFU/ml) Such culture media containing various antibiotics in various concentrations were prepared After incubation at 37° C. for 16 hours, the minimum inhibitory concentrations (MIC: μg/ml) were measured. As comparative compounds, cefotaxime, oeftazidime and the compounds disclosed in Example 2 of Japanese Unexamined Patent Publication No. 215690/1985 e.g. sodium 7-[2-(2-aminothiazol-4-yl)-2-ethoxyiminoacetamido]-3-(1-carboxylatemethylpyridinio-4-yl)thiomethyl-3-cephem-4-carboxylate (hereinafter referred to simply as "Reference Example A") were employed.

Ps. aeruginosa AKR17 = assay: agar plate dilution method, MIC against Ps. aeruginosa AKR17; type: cell-based; details: Pseudomonas aeruginosa, AKR17, 16 h, read-out: Minimum Inhibitory Concentration (MIC)
Description: as §1

[1] = tested on: sensitive and resistant Gram-positive bacteria and Gram-negative bacteria particularly glucose non-fermentative Gram-negative rods; assay: antibacterial activity and spectrum (in words); type: cell-based; details: in vitro
Description: as §1

Ps. aeruginosa AK 109 = assay: agar plate dilution method, MIC against Ps. aeruginosa AK 109; type: cell-based; details: Pseudomonas aeruginosa, AK109; Ps. aeruginosa AK 109; 10^6 CFU/ml, 37° C., 16 hours; read-out: Minimum Inhibitory Concentration (MIC)
Description: as §1

E. coli NIHJ JC2 = assay: agar plate dilution method, MIC against E. coli NIHJ JC2; type: cell-based; details: Escherichia coli, NIHJJC2; E. coli NIHJ JC2; 10^6 CFU/ml, 37° C., 16 hours; read-out: Minimum Inhibitory Concentration (MIC)
Description: as §1

K. oxytoca GN10650 = assay: agar plate dilution method, MIC against K. oxytoca GN10650; type: cell-based; details: Klebsiella oxytoca; K. oxytoca GN10650 (lactamase-producing strain); 10^6 CFU/ml, 37° C., 16 hours; read-out: Minimum Inhibitory Concentration (MIC)
Description: as §1

K. pneumoniae No. 42 = assay: agar plate dilution method, MIC against K. pneumoniae No. 42; type: cell-based; details: Klebsiella pneumoniae; K. pneumoniae No. 42 (lactamase-producing strain); 10^6 CFU/ml, 37° C., 16 hours; read-out: Minimum Inhibitory Concentration (MIC)
Description: as §1

C. freundii GN346/16 = assay: agar plate dilution method, MIC against C. freundii GN346/16; type: cell-based; details: Citrobacter freundii; C. freundii GN346/16; 10^6 CFU/ml, 37° C., 16 hours; read-out: Minimum Inhibitory Concentration (MIC)
Description: as §1

Ps. maltophilia GN 12873 = assay: agar plate dilution method, MIC against Ps. maltophilia GN 12873; type: cell-based, Pseudomonas maltophilia; details: Stenotrophomonas maltophilia, GN12873; Ps. maltophilia GN 12873 (lactamase-producing strain); 10^6 CFU/ml, 37° C., 16 hours; read-out: Minimum Inhibitory Concentration (MIC)
Description: as §1

S. marcescens IAM 1184 = assay: agar plate dilution method, MIC against S. marcescens IAM 1184; type: cell-based; details: Serratia marcescens, IAM1184; S. marcescens IAM 1184; 10^6 CFU/ml, 37° C., 16 hours; read-out: Minimum Inhibitory Concentration (MIC)
Description: as §1

C. freundii GN346 = assay: agar plate dilution method, MIC against C. freundii GN346; type: cell-based; details: Citrobacter freundii; C. freundii GN346 (lactamase-producing strain); 10^6 CFU/ml, 37° C., 16 hours; read-out: Minimum Inhibitory Concentration (MIC)
Description: as §1

S. aureus JS1 = assay: agar plate dilution method, MIC against S. aureus JS1; type: cell-based; details: Staphylococcus aureus, JS1, 16 h, read-out: Minimum Inhibitory Concentration (MIC)
Description: as §1

Ps. aeruginosa IFO3445 = assay: agar plate dilution method, MIC against Ps. aeruginosa IFO3445; type: cell-based; details: Pseudomonas aeruginosa; Ps. aeruginosa IFO3445; 10^6 CFU/ml, 37° C., 16 hours; read-out: Minimum Inhibitory Concentration (MIC)
Description: as §1

S. marcescens No. 16-2 = assay: agar plate dilution method, MIC against S. marcescens No. 16-2; type: cell-based; details: Serratia marcescens, NO.162; S. marcescens No. 16-2 (lactamase-producing strain); 10^6 CFU/ml, 37° C., 16 hours; read-out: Minimum Inhibitory Concentration (MIC)
Description: as §1

S. epidermidis IAM12012 = assay: agar plate dilution method, MIC against S. epidermidis IAM12012; type: cell-based; details: Staphylococcus epidermidis, IAM12012, 16 h, read-out: Minimum Inhibitory Concentration (MIC)
Description: as §1

Ps. cepacia 23 = assay: agar plate dilution method, MIC against Ps. cepacia 23; type: cell-based, Pseudomonas cepacia; details: Burkholderia cepacia, 23, 16 h, read-out: Minimum Inhibitory Concentration (MIC)
Description: as §1

E. cloacae 963 = assay: agar plate dilution method, MIC against E. cloacae 963; type: cell-based; details: Enterobacter cloacae; E. cloacae 963; 10^6 CFU/ml, 37° C., 16 hours; read-out: Minimum Inhibitory Concentration (MIC)
Description: as §1

E. coli CSH(RE45) = assay: agar plate dilution method, MIC against E. coli CSH(RE45); type: cell-based; details: Escherichia coli, 16 h, read-out: Minimum Inhibitory Concentration (MIC)
Description: as §1

M. luteus ATCC9341 = assay: agar plate dilution method, MIC against M. luteus ATCC9341; type: cell-based; details: Micrococcus luteus; M. luteus ATCC9341; 10^6 CFU/ml, 37° C., 16 hours; read-out: Minimum Inhibitory Concentration (MIC)
Description: as §1

S. aureus BB5703 = assay: agar plate dilution method, MIC against S. aureus BB5703; type: cell-based; details: Staphylococcus aureus, BB5703, 16 h, read-out: Minimum Inhibitory Concentration (MIC)
Description: as §1

M. morganii GN5407 = assay: agar plate dilution method, MIC against M. morganii GN5407; type: cell-based; details: Morganella morganii; M. morganii GN5407 (lactamase-producing strain); 10^6 CFU/ml, 37° C., 16 hours; read-out: Minimum Inhibitory Concentration (MIC)
Description: as §1

A. calcoaceticus No. 4 = assay: agar plate dilution method, MIC against A. calcoaceticus No. 4; type: cell-based; details: Acinetobacter calcoaceticus; A. calcoaceticus No. 4; 10^6 CFU/ml, 37° C., 16 hours; read-out: Minimum Inhibitory Concentration (MIC)
Description: as §1

E. coli CSH2 (RK1) = assay: agar plate dilution method, MIC against E. coli CSH2 (RK1); type: cell-based; details: Escherichia coli, 16 h, read-out: Minimum Inhibitory Concentration (MIC)
Description: as §1

P. vulgaris No. 33 = assay: agar plate dilution method, MIC against P. vulgaris No. 33; type: cell-based; details: Proteus vulgaris; P. vulgaris No. 33 (lactamase-producing strain); 10^6 CFU/ml, 37° C., 16 hours; read-out: Minimum Inhibitory Concentration (MIC)
Description: as §1

K. pneumoniae PCI-602 = assay: agar plate dilution method, MIC against K. pneumoniae PCI-602; type: cell-based; details: Klebsiella pneumoniae, PCI602, 16 h, read-out: Minimum Inhibitory Concentration (MIC)
Description: as §1

E. coli GN5482 = assay: agar plate dilution method, MIC against E. coli GN5482; type: cell-based; details: Escherichia coli; E. coli GN5482 (lactamase-producing strain); 10^6 CFU/ml, 37° C., 16 hours; read-out: Minimum Inhibitory Concentration (MIC)
Description: as §1

E. cloacae Nek 39 = assay: agar plate dilution method, MIC against E. cloacae Nek 39; type: cell-based; details: Enterobacter cloacae, NEK39; E. cloacae Nek 39 (lactamase-producing strain); 10^6 CFU/ml, 37° C., 16 hours; read-out: Minimum Inhibitory Concentration (MIC)
Description: as §1

P. vulgaris HX-19 = assay: agar plate dilution method, MIC against P. vulgaris HX-19; type: cell-based; details: Proteus vulgaris, HX19, 16 h, read-out: Minimum Inhibitory Concentration (MIC)
Description: as §1

## Nc1nc(C(=NOC(C(=O)O)c2ccc(O)c(O)c2)C(=O)NC2C(=O)N3C(C(=O)[O-])=C(CSc4cc[n+](CC(=O)O)cc4)CSC23)cs1 (stereo not drawn) [Example 5, 7-[2-(2-aminothiazol-4-yl)-2-(α-carboxy-3,4-dihydroxybenzyloxyimino)acetamido]-3-(1-carboxymethylpyridinio-4-yl)thiomethyl-3-cephem-4-carboxylate (syn-isomer)]
S. aureus 209P NIHJ-JC1
  MIC: 0.78 µg/mL (≈ 1.09 µM)
Ps. aeruginosa AKR17
  MIC: 1.56 µg/mL (≈ 2.18 µM)
[1]
  antibacterial activities and antibacterial spectrum (in words): excellent antibacterial activities and a broad antibacterial spectrum
Ps. aeruginosa AK 109
  MIC: 0.78 µg/mL (≈ 1.09 µM)
E. coli NIHJ JC2
  MIC: 0.1 µg/mL (≈ 0.14 µM)
K. oxytoca GN10650
  MIC: 0.05 µg/mL (≈ 0.0698 µM)
K. pneumoniae No. 42
  MIC: 0.2 µg/mL (≈ 0.279 µM)
C. freundii GN346/16
  MIC: 0.39 µg/mL (≈ 0.544 µM)
Ps. maltophilia GN 12873
  MIC: > 100 µg/mL
S. marcescens IAM 1184
  MIC: 0.1 µg/mL (≈ 0.14 µM)
C. freundii GN346
  MIC: 25 µg/mL (≈ 34.9 µM)
S. aureus JS1
  MIC: 6.25 µg/mL (≈ 8.72 µM)
Ps. aeruginosa IFO3445
  MIC: 0.39 µg/mL (≈ 0.544 µM)
S. marcescens No. 16-2
  MIC: 0.78 µg/mL (≈ 1.09 µM)
S. epidermidis IAM12012
  MIC: 1.56 µg/mL (≈ 2.18 µM)
Ps. cepacia 23
  MIC: < 6 ng/mL
E. cloacae 963
  MIC: 0.1 µg/mL (≈ 0.14 µM)
E. coli CSH(RE45)
  MIC: 0.05 µg/mL (≈ 0.0698 µM)
M. luteus ATCC9341
  MIC: 0.78 µg/mL (≈ 1.09 µM)
S. aureus BB5703
  MIC: 3.12 µg/mL (≈ 4.35 µM)
M. morganii GN5407
  MIC: 0.1 µg/mL (≈ 0.14 µM)
A. calcoaceticus No. 4
  MIC: 0.2 µg/mL (≈ 0.279 µM)
E. coli CSH2 (RK1)
  MIC: 0.05 µg/mL (≈ 0.0698 µM)
P. vulgaris No. 33
  MIC: 0.05 µg/mL (≈ 0.0698 µM)
K. pneumoniae PCI-602
  MIC: < 6 ng/mL
E. coli GN5482
  MIC: 0.2 µg/mL (≈ 0.279 µM)
E. cloacae Nek 39
  MIC: 0.2 µg/mL (≈ 0.279 µM)
P. vulgaris HX-19
  MIC: 0.025 µg/mL (≈ 0.0349 µM)
